“Also recorded” adds a separate entry of the source.
What was measured:
[1] = test system: bone-marrow-derived macrophages (BMDMs); details: 20 µM added to medium, 4 hr, relative to mock treatment
[2] = test system: BMDMs; assay: Western blot of Tbk1 and Irf3 phosphorylation in BMDMs; type: cell-based, mouse; details: 2 and 4 hr after treatment, compared to the two other isomers
[3] = test system: hSTING; details: ref Conlon et al., 2013; cited from earlier work
[4] = molecular target: hSTING^R232/A162 (Homo sapiens, UniProt Q86WV6, H232R/S162A); assay: ITC binding to hSTING^R232/A162
Chain of hSTING^R232/A162 (Q86WV6 140-379 S162A/H232R): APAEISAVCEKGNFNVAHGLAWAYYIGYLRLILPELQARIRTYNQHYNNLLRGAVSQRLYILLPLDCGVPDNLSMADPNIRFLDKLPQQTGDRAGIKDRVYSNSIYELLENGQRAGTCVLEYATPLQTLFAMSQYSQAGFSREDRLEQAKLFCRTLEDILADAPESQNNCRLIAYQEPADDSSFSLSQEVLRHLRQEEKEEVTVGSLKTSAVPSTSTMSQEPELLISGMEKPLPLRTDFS

[5] = test system: mSting; details: ref Conlon et al., 2013; cited from earlier work
[6] = molecular target: hSTING S162I mutant (Homo sapiens, UniProt Q86WV6, S162I); assay: IFNB1 luciferase reporter in HEK293T cells, hSTING S162I; type: cell-based; details: HEK293T cellular assay
Chain of hSTING S162I mutant (Q86WV6 whole entry S162I): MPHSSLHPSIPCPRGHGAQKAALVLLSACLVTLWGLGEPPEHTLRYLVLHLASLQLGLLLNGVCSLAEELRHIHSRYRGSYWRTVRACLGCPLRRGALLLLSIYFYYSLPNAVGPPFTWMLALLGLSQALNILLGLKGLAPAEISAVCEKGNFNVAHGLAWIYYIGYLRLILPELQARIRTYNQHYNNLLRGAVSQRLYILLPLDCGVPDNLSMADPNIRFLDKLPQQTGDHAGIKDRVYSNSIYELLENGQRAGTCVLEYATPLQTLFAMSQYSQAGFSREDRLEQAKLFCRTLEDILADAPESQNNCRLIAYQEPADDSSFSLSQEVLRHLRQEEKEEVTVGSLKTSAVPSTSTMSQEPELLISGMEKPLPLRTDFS

[7] = molecular target: hSTING^H232 (Homo sapiens, UniProt Q86WV6); assay: IFNB1 luciferase reporter in HEK293T cells, hSTING^H232; details: cGAMP isomers and c[di-GMP] with digitonin, DMXAA in medium
Chain of hSTING^H232 (Q86WV6 whole entry): as the sequence (Q86WV6 whole entry S162I) above, with I162S counted along it

[8] = molecular target: hSTING^H232/A162 (S162A mutant) (Homo sapiens, UniProt Q86WV6, S162A); assay: ITC binding to S162A mutant of hSTING^H232
Chain of hSTING^H232/A162 (S162A mutant) (Q86WV6 140-379 S162A): as the sequence (Q86WV6 140-379 S162A/H232R) above, with R93H counted along it

[9] = test system: THP1 cells; assay: CXCL10 ELISA in THP1 cells after cGAMP stimulation; type: cell-based, human; details: for EC50 comparison: Digitonin-mediated permeabilization
[10] = molecular target: T1, hSTING^R232 (Homo sapiens, UniProt Q86WV6, H232R); assay: IFNB1 luciferase reporter in HEK293T cells, hSTING^R232; details: digitonin delivery
T1 sequence (Q86WV6 whole entry H232R): as the sequence (Q86WV6 whole entry S162I) above, with I162S, H232R counted along it

[11] = molecular target: hSTING^THP1 (Homo sapiens, UniProt Q86WV6, G230A/H232R/H72R/R293Q); assay: IFNB1 luciferase reporter in HEK293T cells, hSTING^THP1; details: digitonin delivery, c[di-GMP] 5 and 10 µM
Chain of hSTING^THP1 (Q86WV6 whole entry H72R/G230A/H232R/R293Q): as the sequence (Q86WV6 whole entry S162I) above, with H72R, I162S, G230A, H232R, R293Q counted along it

[12] = molecular target: T1, hSTING^R232; details: ITC, Chen laboratory; ref Zhang et al., 2013; cited from earlier work
[13] = molecular target: hSTING^H232 (aa 140–379) (Homo sapiens, UniProt Q86WV6, H232R); assay: ITC binding to hSTING^H232; details: complex printed as hSTING^H232 in b72 (Figure 4C)
Chain of hSTING^H232 (aa 140–379) (Q86WV6 140-379 H232R): as the sequence (Q86WV6 140-379 S162A/H232R) above, with A23S counted along it

[14] = addition to medium without Digitonin, 18 hr

**Q.** What does the source list for `Nc1nc2c(ncn2[C@@H]2O[C@@H]3COP(=O)(O)O[C@H]4[C@@H](O)[C@H](n5cnc6c(N)ncnc65)O[C@@H]4COP(=O)(O)O[C@H]3[C@H]2O)c(=O)[nH]1` [c[G(3′,5′)pA(3′,5′)p]]?
**A.** Ccl5 mRNA level increase [1]: 38 fold; Ifnb1 mRNA level increase [1]: 1024 fold; Il6 mRNA level increase [1]: 2624 fold; Tbk1 and Irf3 protein phosphorylation [2]: highest levels of Tbk1 and Irf3 protein phosphorylation

**Q.** For `Cc1ccc2c(=O)c3cccc(CC(=O)O)c3oc2c1C` [DMXAA, 5,6-dimethylxanthenone-4-acetic acid], which “effect on hSTING” value [3] is on record?
**A.** The value was “no effect on hSTING”.

**Q.** What about the “binding (ITC)” value ([4]; 25°C) of the same compound?
**A.** Its value is “binding”.

**Q.** What about the “stoichiometry N value of binding curve” value ([4]; expected 1) of the same compound?
**A.** Its value is about 1.5.

**Q.** And the “activation of mSting” value [5]?
**A.** The value was “activates mSting”.

**Q.** And the IFN induction [6]?
**A.** Its IFN induction is “IFN induction was not observed”.

**Q.** And the IFN reporter response [7]?
**A.** The IFN reporter response was “nonresponsive”.

**Q.** What about the “binding (ITC)” value ([8]; 25°C) of the same compound?
**A.** The value was “binding”.

**Q.** What about the “stoichiometry N value of binding curve” value ([8]; expected 1) of the same compound?
**A.** The value was about 1.5.

**Q.** Which EC50 comparison [9] does the source give for `Nc1nc2c(ncn2[C@@H]2O[C@@H]3COP(=O)(O)O[C@H]4[C@@H](O)[C@H](n5cnc6c(N)ncnc65)O[C@@H]4COP(=O)(O)O[C@@H]2[C@@H]3O)c(=O)[nH]1` [c[G(2′,5′)pA(3′,5′)p]] here?
**A.** Its EC50 comparison is “no difference in the EC50 values”.

**Q.** Which IFN reporter response [10] does the source give for `Nc1nc2c(ncn2[C@@H]2O[C@@H]3COP(=O)(O)O[C@H]4[C@@H](O)[C@H](n5cnc6c(=O)[nH]c(N)nc65)O[C@@H]4COP(=O)(O)O[C@H]3[C@H]2O)c(=O)[nH]1` [c[di-GMP]] here?
**A.** The IFN reporter response was “residual response to high concentrations of c[di-GMP]”.

**Q.** And the IFN reporter response [11]?
**A.** The IFN reporter response was “residual response to high concentrations of c[di-GMP]; also recorded: reduced IFN-pathway activation”.

**Q.** And the IFN reporter response [7]?
**A.** The IFN reporter response was “nonresponsive”.

**Q.** Which EC50 comparison [9] does the source give for `Nc1nc2c(ncn2[C@@H]2O[C@@H]3COP(=O)(O)O[C@@H]4[C@H](O)[C@@H](COP(=O)(O)O[C@@H]2[C@@H]3O)O[C@H]4n2cnc3c(N)ncnc32)c(=O)[nH]1` here?
**A.** The EC50 comparison was “no difference in the EC50 values”.

**Q.** What about the “stimulation more effective than c[G(2′,5′)pA(3′,5′)p]” value [9, 14] of the same compound?
**A.** Its value is 2.9 fold.

**Q.** What about the “stimulation more effective than c[G(3′,5′)pA(3′,5′)p]” value [9, 14] of the same compound?
**A.** The value was 4.8 fold.

**Q.** And the Kd [12]?
**A.** Its Kd is 280 nM.

**Q.** And the IFN reporter response [7]?
**A.** The IFN reporter response was “no significant differences in stimulation”.

**Q.** And the Kd [13]?
**A.** Its Kd is 170 nM.

From article PMC4386733 (Cell, 2013)
